Assay results published in the NIST ThermoML archive (doi:10.1016/j.jct.2010.12.019).
“And” between values parts separate entries of the source, which are not always exact repeats. Equal values may be shown once. ± gives the expanded uncertainty stated by the source.

What was measured:
[1] = activity coefficient (dimensionless); of the first substance listed, at infinite dilution; xn = mol fraction of the nth substance listed; conditions: Liquid, Chromatography, x1 = 0
[2] = 293.15 K; 101.33 kPa; Liquid; Pycnometric method

activity coefficient ([1]; 313.15 K) | activity coefficient ([1]; 323.15 K) | activity coefficient ([1]; 333.15 K) | mass density [2] [kg/m3] | SMILES
2.8 and 2.88 | 2.89 and 2.9 | 2.93 and 3.03 | – | C#CCCC [1-pentyne] + CCCCn1cc[n+](C)c1.[F][Sb-]([F])([F])([F])([F])[F]
20 and 18.7 | 15.7 and 21.1 | 17.3 and 18.2 | – | C1CCCCCC1 [cycloheptane] + CCCCn1cc[n+](C)c1.[F][Sb-]([F])([F])([F])([F])[F]
22.9 and 23.4 | 17.2 and 27.1 | 20.4 and 21.5 | – | C1CCCCCCC1 [cyclooctane] + CCCCn1cc[n+](C)c1.[F][Sb-]([F])([F])([F])([F])[F]
28.6 and 27.9 | 26.4 and 28.2 | 26 and 26.6 | – | CCCCCC [hexane] + CCCCn1cc[n+](C)c1.[F][Sb-]([F])([F])([F])([F])[F]
25.7 ± 2.2 | 24.6 and 25.7 | 24.2 and 24.9 | – | C=CCCCCCC [oct-1-ene] + CCCCn1cc[n+](C)c1.[F][Sb-]([F])([F])([F])([F])[F]
47.7 and 48.8 | 44.9 and 49.1 | 44.1 and 47.3 | – | CCCCCCCCC [nonane] + CCCCn1cc[n+](C)c1.[F][Sb-]([F])([F])([F])([F])[F]
19.6 and 21.5 | 17.6 and 18.3 | 17 and 18.1 | – | CCCCC [pentane] + CCCCn1cc[n+](C)c1.[F][Sb-]([F])([F])([F])([F])[F]
1.7 and 1.88 | 1.64 and 1.71 | 1.57 ± 0.13 | – | CO [methanol] + CCCCn1cc[n+](C)c1.[F][Sb-]([F])([F])([F])([F])[F]
37.1 and 38.7 | 34.2 and 35.8 | 31.4 and 34.4 | – | CCCCCCC [heptane] + CCCCn1cc[n+](C)c1.[F][Sb-]([F])([F])([F])([F])[F]
1.23 and 1.31 | 1.28 and 1.37 | 1.31 and 1.37 | – | c1ccccc1 [benzene] + CCCCn1cc[n+](C)c1.[F][Sb-]([F])([F])([F])([F])[F]
2.33 and 2.46 | 2.14 and 2.3 | 2.01 and 2.07 | – | CCO [ethanol] + CCCCn1cc[n+](C)c1.[F][Sb-]([F])([F])([F])([F])[F]
16.4 and 15.4 | 11 and 18.6 | 14.1 and 14.6 | – | C1CCCCC1 [cyclohexane] + CCCCn1cc[n+](C)c1.[F][Sb-]([F])([F])([F])([F])[F]
40.4 and 44.6 | 39.5 and 42.7 | 39.2 and 42.7 | – | CCCCCCCC [octane] + CCCCn1cc[n+](C)c1.[F][Sb-]([F])([F])([F])([F])[F]
11.4 and 11.9 | 10.6 and 10.9 | 10.2 and 10.7 | – | C1CCCC1 [cyclopentane] + CCCCn1cc[n+](C)c1.[F][Sb-]([F])([F])([F])([F])[F]
3.13 and 3.22 | 2.82 and 2.96 | 2.51 and 2.75 | – | CCCO [propan-1-ol] + CCCCn1cc[n+](C)c1.[F][Sb-]([F])([F])([F])([F])[F]
14 and 13.1 | 13 and 14.1 | 13.4 and 13.8 | – | C=CCCCC [hex-1-ene] + CCCCn1cc[n+](C)c1.[F][Sb-]([F])([F])([F])([F])[F]
3.11 and 2.92 | 3.09 and 3.23 | 3.18 and 3.45 | – | CCc1ccccc1 [ethylbenzene] + CCCCn1cc[n+](C)c1.[F][Sb-]([F])([F])([F])([F])[F]

The next lines start with the compound.

SMILES | activity coefficient ([1]; 313.15 K) | activity coefficient ([1]; 323.15 K) | activity coefficient ([1]; 333.15 K) | mass density [2] [kg/m3]
Cc1ccccc1 [toluene] + CCCCn1cc[n+](C)c1.[F][Sb-]([F])([F])([F])([F])[F] | 1.87 and 1.78 | 1.88 and 1.94 | 1.92 and 1.97 | –
C=CCCC [1-pentene] + CCCCn1cc[n+](C)c1.[F][Sb-]([F])([F])([F])([F])[F] | 10.1 and 10.5 | 10.2 ± 0.9 | 9.94 and 10.4 | –
C#CCCCCCCC [1-nonyne] + CCCCn1cc[n+](C)c1.[F][Sb-]([F])([F])([F])([F])[F] | 11.4 and 11.6 | 10.9 and 11.8 | 10.9 and 11.6 | –
CCCCn1cc[n+](C)c1.[F][Sb-]([F])([F])([F])([F])[F] [1-butyl-3-methylimidazolium hexafluoroantimonate] | – | – | – | 1694.3 ± 3.8
C=CCCCCCCC [1-nonene] + CCCCn1cc[n+](C)c1.[F][Sb-]([F])([F])([F])([F])[F] | 32.4 and 32.6 | 30.8 and 33.4 | 30.8 and 32.6 | –
C#CCCCCCC [1-octyne] + CCCCn1cc[n+](C)c1.[F][Sb-]([F])([F])([F])([F])[F] | 8.68 and 9.4 | 8.82 and 9.08 | 8.56 and 8.99 | –
C#CCCCC [1-hexyne] + CCCCn1cc[n+](C)c1.[F][Sb-]([F])([F])([F])([F])[F] | 4.26 and 4.05 | 4.11 and 4.23 | 4.1 and 4.32 | –
C=CCCCCC [1-heptene] + CCCCn1cc[n+](C)c1.[F][Sb-]([F])([F])([F])([F])[F] | 19.3 and 21.1 | 17.8 and 19.7 | 15.9 and 16.6 | –
CC(C)=O [acetone] + CCCCn1cc[n+](C)c1.[F][Sb-]([F])([F])([F])([F])[F] | 0.403 and 0.437 | 0.445 and 0.466 | 0.463 and 0.487 | –
C#CCCCCC [1-heptyne] + CCCCn1cc[n+](C)c1.[F][Sb-]([F])([F])([F])([F])[F] | 5.74 and 6.11 | 5.82 and 6.08 | 5.74 and 6.23 | –
CCC(C)=O [butanone] + CCCCn1cc[n+](C)c1.[F][Sb-]([F])([F])([F])([F])[F] | 0.648 and 0.632 | 0.681 ± 0.058 | 0.702 and 0.718 | –
